Reference: US20150080438A1, “6,7-Dihydro-5H-benzo[7]annulene derivatives, processes for their preparation, pharmaceutical products comprising them and their use for preparing medicaments” (Bayer Intellectual Property GmbH, priority 2011, published 2015)

Target: T1, oestrogen receptor (ER) (Homo sapiens, UniProt P03372)
T1 construct: These MVLN cells express, along with the functional oestrogen receptor (ER), a reporter construct; endogenous in cells; host or cells: MVLN cells (MCF7 derivative with ER-responsive luciferase reporter)
T1 sequence (P03372 1-595): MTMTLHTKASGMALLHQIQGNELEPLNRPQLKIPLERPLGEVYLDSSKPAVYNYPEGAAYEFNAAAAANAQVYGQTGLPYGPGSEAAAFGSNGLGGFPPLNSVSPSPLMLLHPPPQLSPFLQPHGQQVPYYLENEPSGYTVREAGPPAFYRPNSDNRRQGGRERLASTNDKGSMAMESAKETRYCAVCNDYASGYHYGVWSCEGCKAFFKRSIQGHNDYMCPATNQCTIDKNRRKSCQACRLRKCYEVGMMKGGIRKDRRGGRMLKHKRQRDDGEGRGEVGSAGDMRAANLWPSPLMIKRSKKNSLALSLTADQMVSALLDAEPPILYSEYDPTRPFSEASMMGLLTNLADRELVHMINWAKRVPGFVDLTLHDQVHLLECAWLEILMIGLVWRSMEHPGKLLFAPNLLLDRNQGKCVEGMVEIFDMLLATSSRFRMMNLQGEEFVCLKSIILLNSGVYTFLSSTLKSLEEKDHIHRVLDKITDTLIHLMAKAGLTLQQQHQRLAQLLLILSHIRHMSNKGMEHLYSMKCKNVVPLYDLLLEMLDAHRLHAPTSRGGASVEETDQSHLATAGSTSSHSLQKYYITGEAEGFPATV
Assay: Anti-oestrogenic action in MVLN cells (inhibition of estradiol-induced luciferase, transactivation antagonism)
Assay type: cell-based
Conditions: inhibition of estradiol-induced luciferase activity, read-out: Anti-oestrogenic action in vitro: MVLN transactivation antagonism IC50
Source text: The anti-oestrogenic action of the claimed pharmacological compounds was investigated in so-called MVLN cells in vitro. MVLN cells are derivatives of the hormone-responsive MCF7 breast cancer cells known by a person skilled in the art. These MVLN cells express, along with the functional oestrogen receptor (ER), a reporter construct, which under ER-activation expresses luciferase. Determination of the activity of the induced luciferase permits a direct conclusion on the oestrogen properties of substances. To investigate the anti-oestrogenic properties of the pharmacological compounds, they were investigated in the presence of oestrogen for their potential for inhibiting the luciferase signal induced by estradiol.
The claimed pharmacological test substances were investigated in MVLN cells for their anti-oestrogenic potential, as described (see Table 2).

Row | IC50 | SMILES
1 | 5 nM | CN(CCCCCCC1=C(c2ccc(F)c(O)c2)CCCc2cc(O)ccc21)CCCCCC[S+]([O-])CCCC(F)(F)C(F)(F)F (racemic) [Example 34, 8-(4-Fluoro-3-hydroxyphenyl)-9-[6-(methyl{6-[(RS)-(4,4,5,5,5-pentafluoropentyl)sulphinyl]hexyl}amino)hexyl]-6,7-dihydro-5H-benzo[7]annulen-3-ol]
2 | 34 nM | CN(CCCCCCC1=C(c2ccc(F)c(O)c2)CCCc2c1ccc(O)c2F)CCCS(=O)(=O)CCC(F)(F)C(F)(F)F [Example 116, 4-Fluoro-8-(4-fluoro-3-hydroxyphenyl)-9-[6-(methyl{3-[(3,3,4,4,4-pentafluorobutyl)sulphonyl]propyl}amino)hexyl]-6,7-dihydro-5H-benzo[7]annulen-3-ol]
3 | 3 nM | CN(CCCCCCC1=C(c2ccccc2)CCCc2cc(O)ccc21)CCCCS(=O)(=O)CCCC(F)(F)C(F)(F)F [Example 67, 9-[6-(Methyl{4-[(4,4,5,5,5-pentafluoropentyl)sulphonyl]butyl}amino)hexyl]-8-phenyl-6,7-dihydro-5H-benzo[7]annulen-3-ol]
4 | 9 nM | CC(C)(O)CN(CCCCCCC1=C(c2ccccc2)CCCc2cc(O)ccc21)CCC[S+]([O-])CCC(F)(F)F (racemic) [Example 82, 9-{6-[(2-Hydroxy-2-methylpropyl){3-[(RS)-(3,3,3-trifluoropropyl)sulphinyl]propyl}amino]hexyl}-8-phenyl-6,7-dihydro-5H-benzo[7]annulen-3-ol]
5 | 17 nM | O=S(=O)(CCCN(CCCO)CCCCCCC1=C(c2ccccc2)CCCc2cc(O)ccc21)CCCC(F)(F)C(F)(F)F [Example 73, 9-{6-[(3-Hydroxypropyl){3-[(4,4,5,5,5-pentafluoropentyl)sulphonyl]propyl}amino]hexyl}-8-phenyl-6,7-dihydro-5H-benzo[7]annulen-3-ol]
6 | 2 nM | CN(CCCCCCC1=C(c2cccc(O)c2)CCCc2cc(O)ccc21)CCCCS(=O)(=O)CCC(F)(F)F [Example 113, 8-(3-Hydroxyphenyl)-9-[6-(methyl{4-[(3,3,3-trifluoropropyl)sulphonyl]butyl}amino)hexyl]-6,7-dihydro-5H-benzo[7]annulen-3-ol]
7 | 2 nM | CCN(CCCCCCC1=C(c2cccc(O)c2)CCCc2cc(O)ccc21)CCCS(=O)(=O)CCCC(F)(F)C(F)(F)F [Example 90, 9-[6-(Ethyl{3-[(4,4,5,5,5-pentafluoropentyl)sulphonyl]propyl}amino)hexyl]-8-(3-hydroxyphenyl)-6,7-dihydro-5H-benzo[7]annulen-3-ol]
8 | 2 nM | CN(CCCCCCC1=C(c2cccc(O)c2)CCCc2cc(O)ccc21)CCC[S+]([O-])CCCC(F)(F)C(F)(F)F (racemic) [Example 12, 8-(3-Hydroxyphenyl)-9-[6-(methyl{3-[(RS)-(4,4,5,5,5-pentafluoropentyl)sulphinyl]propyl}amino)hexyl]-6,7-dihydro-5H-benzo[7]annulen-3-ol]
9 | 7 nM | [O-][S+](CCCN(CCO)CCCCCCC1=C(c2cccc(O)c2)CCCc2cc(O)ccc21)CCC(F)(F)F (racemic) [Example 95, 9-{6-[(2-Hydroxyethyl){3-[(RS)-(3,3,3-trifluoropropyl)sulphinyl]propyl}amino]hexyl}-8-(3-hydroxyphenyl)-6,7-dihydro-5H-benzo[7]annulen-3-ol]
10 | 14 nM | CC(C)(O)CN(CCCCCCC1=C(c2ccccc2)CCCc2cc(O)ccc21)CCCS(=O)(=O)CCCC(F)(F)C(F)(F)F [Example 75, 9-{6-[(2-Hydroxy-2-methylpropyl){3-[(4,4,5,5,5-pentafluoropentyl)sulphonyl]propyl}amino]hexyl}-8-phenyl-6,7-dihydro-5H-benzo[7]annulen-3-01]
11 | 27 nM | CN(CCCCCC1=C(c2cccnc2)CCCc2cc(O)ccc21)CCC[S+]([O-])CCCC(F)(F)C(F)(F)F (racemic) [Example 40, 9-[5-(Methyl{3-[(RS)-(4,4,5,5,5-pentafluoropentyl)sulphinyl]propyl}amino)pentyl]-8-(3-pyridyl)-6,7-dihydro-5H-benzo[7]annulen-3-ol]
12 | 3 nM | COCCCN(CCCCCCC1=C(c2cccc(O)c2)CCCc2cc(O)ccc21)CCCS(=O)(=O)CCCC(F)(F)C(F)(F)F [Example 107, 8-(3-Hydroxyphenyl)-9-{6-[(3-methoxypropyl){3-[(4,4,5,5,5-pentafluoropentyl)sulphonyl]propyl}amino]hexyl}-6,7-dihydro-5H-benzo[7]annulen-3-ol]
13 | 87 nM | CN(CCCCCCC1=C(c2ccccc2)CCCc2c1ccc(O)c2Cl)CCCCS(=O)(=O)CCC(F)(F)F [Example 109, 4-Chloro-9-[6-(methyl{4-[(3,3,3-trifluoropropyl)sulphonyl]butyl}amino)hexyl]-8-phenyl-6,7-dihydro-5H-benzo[7]annulen-3-ol]
14 | 5 nM | CN(CCCCCCC1=C(c2ccc(F)c(O)c2)CCCc2cc(O)c(F)cc21)CCCCS(=O)(=O)CCCC(F)(F)F [Example 128, 2-Fluoro-8-(4-fluoro-3-hydroxyphenyl)-9-[6-(methyl{4-[(4,4,4-trifluorobutyl)sulphonyl]butyl}amino)hexyl]-6,7-dihydro-5H-benzo[7]annulen-3-ol]
15 | 7 nM | CN(CCCCCCC1=C(c2ccc(F)c(O)c2)CCCc2cc(O)c(F)cc21)CCCCS(=O)(=O)CCCC(F)(F)C(F)(F)F [Example 121, 2-Fluoro-8-(4-fluoro-3-hydroxyphenyl)-9-[6-(methyl{4-[(4,4,5,5,5-pentafluoropentyl)sulphonyl]butyl}amino)hexyl]-6,7-dihydro-5H-benzo[7]annulen-3-ol]
16 | 1 nM | CN(CCCCCCC1=C(c2ccc(O)cc2)CCCc2cc(O)ccc21)CCC[S+]([O-])CCCC(F)(F)C(F)(F)F (racemic) [Example 26, 8-(4-Hydroxyphenyl)-9-[6-(methyl{3-[(RS)-(4,4,5,5,5-pentafluoropentyl)sulphinyl]propyl}amino)hexyl]-6,7-dihydro-5H-benzo[7]annulen-3-ol]
17 | 2 nM | CC(C)(O)CN(CCCCCCC1=C(c2cccc(O)c2)CCCc2cc(O)ccc21)CCC[S+]([O-])CCC(F)(F)F (racemic) [Example 97, 9-{6-[(2-Hydroxy-2-methylpropyl){3-[(RS)-(3,3,3-trifluoropropyl)sulphinyl]propyl}amino]hexyl}-8-(3-hydroxyphenyl)-6,7-dihydro-5H-benzo[7]annulen-3-ol]
18 | 6 nM | CCN(CCCCCCC1=C(c2ccccc2)CCCc2cc(O)ccc21)CCCS(=O)(=O)CCCC(F)(F)C(F)(F)F [Example 69, 9-[6-(Ethyl{3-[(4,4,5,5,5-pentafluoropentyl)sulphonyl]propyl}amino)hexyl]-8-phenyl-6,7-dihydro-5H-benzo[7]annulen-3-ol]
19 | 1 nM | CC(C)(O)CN(CCCCCCC1=C(c2cccc(O)c2)CCCc2cc(O)ccc21)CCCS(=O)(=O)CCCC(F)(F)C(F)(F)F [Example 93, 9-{6-[(2-Hydroxy-2-methylpropyl){3-[(4,4,5,5,5-pentafluoropentyl)sulphonyl]propyl}amino]hexyl}-8-(3-hydroxyphenyl)-6,7-dihydro-5H-benzo[7]annulen-3-ol]
20 | 2 nM | COCCCN(CCCCCCC1=C(c2cccc(O)c2)CCCc2cc(O)ccc21)CCC[S+]([O-])CCCC(F)(F)C(F)(F)F (racemic) [Example 108, 8-(3-Hydroxyphenyl)-9-{6-[(3-methoxypropyl){3-[(RS)-(4,4,5,5,5-pentafluoropentyl)sulphinyl]propyl}amino]hexyl}-6,7-dihydro-5H-benzo[7]annulen-3-ol]
21 | 8 nM | CN(CCCCCC1=C(c2cccc(O)c2)CCCc2cc(O)ccc21)CCCCC[S+]([O-])CCCC(F)(F)C(F)(F)F (racemic) [Example 8, 8-(3-Hydroxyphenyl)-9-[5-(methyl{5-[(RS)-(4,4,5,5,5-pentafluoropentyl)sulphinyl]pentyl}amino)pentyl]-6,7-dihydro-5H-benzo[7]annulen-3-ol]
22 | 3 nM | O=S(=O)(CCCN(CCO)CCCCCCC1=C(c2cccc(O)c2)CCCc2cc(O)ccc21)CCCC(F)(F)C(F)(F)F [Example 91, 9-{6-[(2-Hydroxyethyl){3-[(4,4,5,5,5-pentafluoropentyl)sulphonyl]propyl}amino]hexyl}-8-(3-hydroxyphenyl)-6,7-dihydro-5H-benzo[7]annulen-3-ol]
23 | 1 nM | COCCN(CCCCCCC1=C(c2cccc(O)c2)CCCc2cc(O)ccc21)CCCS(=O)(=O)CCCC(F)(F)C(F)(F)F [Example 106, 8-(3-Hydroxyphenyl)-9-{6-[(2-methoxyethyl){3-[(4,4,5,5,5-pentafluoropentyl)sulphonyl]propyl}amino]hexyl}-6,7-dihydro-5H-benzo[7]annulen-3-ol]
